Assay results from US4562151A, “Stabilization of L-phenylalanine ammonia-lyase enzyme” (Monsanto Company, priority 1983, dated 1985).

Assays:
[1] = test system: L-phenylalanine ammonia-lyase; assay: Relative effect of polyhydric alcohols on PAL activity, 19 hour incubation (Table III); assay type: biochemical, R. glutinis; details: for PAL Enzyme Activity: 240 mM cinnamate, 6.0 M ammonia, pH 11.5, 37° C., cells about 90 mg/ml, 19 hour incubation, control without alcohol 28; for Stabilizing effect on L-phenylalanine ammonia-lyase: monohydric and dihydric alcohols, concentration not given
Description: The reaction mixture consisted of 6.0 M ammonia, 240 mM cinnamate, R. glutinis cells and the above described polyhydric alcohol at pH 11.5 and 37° C. The final concentration of R. glutinis cells was approximately 90 mg/ml (wet weight). L-phenylalanine formation was determinted by high pressure liquid chromatography following a 19 hour incubation period.

[2] = test system: L-phenylalanine ammonia-lyase enzyme; assay: Effect of cinnamate concentration on PAL activity, R. glutinis cells, with or without glycerol (Table I); assay type: biochemical, Rhodotorula glutinis; details: for PAL Activity with glycerol: glycerol 2.3 M, ammonia 6.8 M, pH 11.2, 37° C., activity at 46.1 mM cinnamate taken as 100
Text: For conciseness, the following explanation and examples of the present invention are described with respect to L-phenylalanine ammonia-lyase enzyme from Rhodotorula glutinis cells (ATCC 15385) known to catalyze the reversible reaction between trans-cinnamate and an ammonia donor to form L-phenylalanine. To facilitate transport of substrate and product across the cell membrane about 3 to 5 microliters of polyethyleneglycol-p-isooctylphenylether per gram wet weight of cells is preferably added to the microbial cell suspension. It should be understood that the addition of polyethylene glycol-p-isooctylphenylether or other detergents which increase the permeability of cell membranes is not necessary for practice of the present invention.
The effects of increasing cinnamate concentrations on the reactivity of L-phenylalanine ammonia-lyase enzyme with and without the addition of glycerol are shown in Table I.
^(1) glycerol concentration = 2.3 M, ammonia concentration = 6.8 M; p
of the reaction mixture = 11.2; temperature = 37° C.; concentratio
of R. glutinis cells = 90 mg/ml. Enzyme activity at 46.1 mM cinnamate was
^(2) ammonia concentration = 6.8 M; pH of the reaction mixture = 11.2
temperature = 37° C.; concentration of R. glutinis cells = 90
mg/ml. Enzyme activity at 60.0 mM cinnamate was taken as 100.

[3] = test system: L-phenylalanine ammonia-lyase enzyme; assay: 24 hour time course of L-phenylalanine formation with and without glycerol (Figure); assay type: biochemical, R. glutinis; details: 2.0 M glycerol, 200 mM cinnamate, 6.0 M ammonia, pH 11.5, 37° C., cells about 90 mg/ml
Description: Further experiments have shown that polyhydric alcohols, such as glycerol, have a substantial effect on the short-term activity of the L-phenylalanine ammonia-lyase enzyme in addition to a stabilizing effect on the long-term activity of the enzyme. The relative rates of L-phenylalanine formation from trans-cinnamate for a twenty-four hour period in the presence and absence of glycerol are plotted in the graph shown in the Figure. The reaction mixture consisted of 200 mM cinnamate, 6.0 M ammonia, 2.0 M glycerol and R. glutinis cells at pH 11.5 and 37° C. The final concentration of R. glutinis cells was approximately 90 mg/ml(wet weight). L-phenylalanine formation was determined by high pressure liquid chromatography. The amount of L-phenylalanine formed in twenty-four hours in the absence of glycerol was taken as 100.

## OC[C@@H](O)[C@@H](O)[C@H](O)[C@H](O)CO [D-mannitol]
[1]; alcohol 0.43 M
  PAL Enzyme Activity: 29

## OC[C@@H](O)[C@@H](O)[C@H](O)[C@@H](O)CO [D-sorbitol]
[1]; alcohol 0.43 M
  PAL Enzyme Activity: 74

## CCCCO [butanol]
[1]
  Stabilizing effect on L-phenylalanine ammonia-lyase: found not to generate the stabilizing effect

## CCO [ethanol]
[1]
  Stabilizing effect on L-phenylalanine ammonia-lyase: found not to generate the stabilizing effect

## OCCO [ethylene glycol]
[1]
  Stabilizing effect on L-phenylalanine ammonia-lyase: found not to generate the stabilizing effect

## OCC(O)CO [glycerol]
[2]; 46.1 mM cinnamate, R. glutinis cells 90 mg/ml
  PAL Activity with glycerol: 100
[2]; 140.0 mM cinnamate, cells 90 mg/ml
  PAL Activity with glycerol: 100
[2]; 185.0 mM cinnamate, cells 90 mg/ml
  PAL Activity with glycerol: 75
[2]; 250.0 mM cinnamate, cells 90 mg/ml
  PAL Activity with glycerol: 59
[2]; 250 mM versus 50 mM cinnamate, in presence of glycerol
  Activity of L-phenylalanine ammonia-lyase at 250 mM cinnamate relative to that measured at 50 mM: about 60%
[3]
  Instantaneous rate of reaction (initial slope of curve) versus control without glycerol: higher instantaneous rate of reaction
[3]; without glycerol enzyme essentially inactivated after 12 hours
  L-phenylalanine formed during the 12 to 24 hr period (long term stabilizing effect): substantial amount of L-phenylalanine formed during the 12 to 24 hr period
[1]; alcohol 0.72 M
  PAL Enzyme Activity: 100

## CO [methanol]
[1]
  Stabilizing effect on L-phenylalanine ammonia-lyase: found not to generate the stabilizing effect
